Read-outs that look alike come from different tables or passages of the source.
Tests used:
[1] = WST-1 cytotoxicity / cell viability assay; type: cell-based, human; conditions: human, HEK293 cells, log-probit on percentage mortality, read-out: LC50
Procedure: (§1) Human embryonic kidney 293 (HEK293) and CACO2 cells were purchased from ATCC. Cells were cultured in DMEM (Corning, USA) supplemented with 10% FBS (Gibco, USA) and 1% penicillin/streptomycin (Gibco, USA). SH-SY5Y cells were gifted by Dr. Dong-Hyung Cho's laboratory in the Dept. of Life Science at Kyungpook National University and were grown in DMEM with high glucose (Gibco, USA). Cells were grown to 80–90% confluence in a 10 cm plate before splitting into a 96 well plate. […] After 48 h incubation, 10% (v/v) of water soluble tetrazolium salt (WST, DoGen Inc., South Korea) was added to each well, following the manufacturer's instruction. Orange color development for enzyme-substrate reaction was monitored, using spectrophotometry at 450 nm (Tecan Sunrise, Switzerland).
(§2) One-way ANOVA, followed by a post-hoc Tukey's HSD test, was used to determine differences in toxicity, and repellency percentages (P < 0.05) (SAS for Window release 6, SAS Institute). All percentage mortality data were corrected using Abbott's formula ([Abbott, 1987]). […] Adult repellency percentage was calculated using the formula PR (%) = [(C-T)/(C + T)] × 100 ([Liu et al., 2013]). All analyses were performed in SAS version 9.4. All the graphs were drawn with SigmaPlot 12.5 (Systat Software, Inc., San Jose, CA, USA).
(§3) As the safety of agricultural products and foods became a major concern and issue in the modern society, validating the effects of pesticides on human physiology and setting the safety limits of their use is important ([Fan and Jackson, 1989]; [Kim et al., 2017]). […] WST-1 is a substrate of mitochondrial dehydrogenases and is converted to a colored dye called formazan in viable cells. Because the intensity of dye is proportional to the amount of enzyme, WST-1 reagent cell proliferation assay is widely used to measure the cell viability ([Ngamwongsatit et al., 2008]).

HEK293 cells = test: WST-1 cytotoxicity / cell viability assay; type: cell-based, human
Procedure: as §1, §2, §3

[2] = WST-1 cytotoxicity / cell viability assay; type: cell-based, human; conditions: human, SH-SY5Y cells, log-probit on percentage mortality, read-out: LC50
Procedure: as §1, §2
(§4) It has also been used as a preservative for cosmetic products. In addition, it was reported that methylparaben is a chemical compound present in local anesthetic that can alter the function of the human nervous system ([Nathan and Sears, 1961]).

SH-SY5Y cells = test: WST-1 cytotoxicity / cell viability assay; type: cell-based, human
Procedure: as §1, §2, §4

CCNB1 (cyclin B1) = test: Real-time PCR, cyclin B1 mRNA expression in HEK293 cells; type: cell-based, human; conditions: HEK293, 48 h, MB 4.4 mM, EB 1.7 mM, VB 1.7 mM, ACTIN reference
Procedure: (§5) HEK293 and SH-SY5Y cells were grown to 60–70% confluence in 6 well plates and the media were exchanged with the ones including the chemicals, MB, EB, or VB in the given concentrations. After 48 h incubation, the cells were washed with cold PBS once and scraped. The cells were washed again with cold PBS twice before extracting total RNA molecules using Qiagen RNeasy kit. cDNAs were constructed from 600 ng of the collected RNAs using Reverse Transcription System (Promega, Japan). cDNA was analyzed through real-time quantifying PCR using SYBR Green Realtime PCR Master Mix (Toyobo, Japan) according to the manufacturer's instructions (CFX96 Touch Real-time PCR System, Bio-Rad).
(§6) Further, we prompted to assess whether the gene expression of cell cycle and stress regulators such as cyclins and HSP70 is affected by MB, EB, and VB. These chemicals were applied to the HEK293 or SH-SY5Y cells at the concentrations of 4.4 mM [0.06% MB, 0.05% (3.7 mM) for SH-SY5Y cells], 1.7 mM (0.025%, EB), and 1.7 mM (0.025%, VB), respectively, for 48 h before extracting the total RNAs from the cells. The concentrations were chosen based on the LC50 values, approximately a third of the values, that would not cause cell death but could influence the gene expression in the tested cells. mRNAs of HSP70, CCNB1 (cyclin B1), and CCND1 (cyclin D1) were quantified by real-time PCR with ACTIN as a reference gene. Cyclin B1 is a checkpoint regulator for S/G2 transition, whereas cyclin D1 is for G1 progression ([Baldin et al., 1993]; [Hwang et al., 1995]). […] The mRNA expression of HSP70, a stress-inducible gene ([Huang et al., 2001]), decreased in MB-, EB-, and VB-treated HEK293 cells, and VB-treated samples showing the least expression (Figure 4A). […] For SH-SY5Y cells, we also measured the mRNA expression of AChE, acetylcholinesterase gene ([Dvir et al., 2010]), because of the similar structure of these chemicals to methylparaben ([Nathan and Sears, 1961]) and of the fact that MB has been reported to have a repellent effect against some insect pests such as Bemisia tabaci (Gennadius) ([Mostafiz et al., 2018]).

HSP70 [3] = test: Real-time PCR, HSP70 mRNA expression in HEK293 cells; type: cell-based, human; conditions: HEK293, 48 h, MB 4.4 mM, EB 1.7 mM, VB 1.7 mM, ACTIN reference
Procedure: as §5, §6

[4] = system: HSP70, CCNB1 (cyclin B1), and CCND1 (cyclin D1); test: Real-time PCR, HSP70, CCNB1 and CCND1 mRNA expression in SH-SY5Y cells; type: cell-based, human; conditions: 48 h, MB 3.7 mM, EB 1.7 mM, VB 1.7 mM
Procedure: as §5, §6

[5] = system: AChE, acetylcholinesterase gene; test: Real-time PCR, AChE mRNA expression in SH-SY5Y cells; type: cell-based, human; conditions: 48 h, MB 3.7 mM, EB 1.7 mM, VB 1.7 mM
Procedure: as §5, §6

[6] = WST-1 cytotoxicity / cell viability assay; type: cell-based, human; conditions: human, CACO2 cells; CACO2, WST assay, log-probit on percentage mortality; read-out: LC50
Procedure: as §1, §2
(§7) Ingested residual pesticides from agricultural foods may stay in the colon for a longer time than any other organs.

CACO2 cells = test: WST-1 cytotoxicity / cell viability assay; type: cell-based, human; conditions: for reduction in CACO2 cells in the WST-1 assay: acetone-T20 solvent
Procedure: as §1, §2, §7

[7] = Crystal violet cell staining assay; type: cell-based; conditions: human, HEK293 cells, in agreement with WST-1, read-out: upper limit of MB concentration for HEK293 cell viability
Procedure: For the crystal violet experiment, cells were split into a 96 well and MB was applied to each well as described above and then HEK293 cells were grown for 1–2 days and CACO2 cells for 4–5 days. Crystal violet staining method published by M. [Feoktistova et al., (2016)] was used without modifications. The resultant plate was taken picture of. In addition, the stained cells were dissolved in methanol and the intensity of color was measured at 595 nm (Tecan Sunrise, Switzerland).

[8] = Visual observation of aggregates in cell culture media; type: physicochemical; conditions: MB higher than 5.5 mM (0.075%) applied to the media; persisted with T20
Procedure: Therefore, we aimed to identify an upper limit of MB concentration between 0.1 and 11 mM (0.001% and 0.15%) where the growth of HEK293 cells was less affected. Seven MB concentrations, 0, 0.1, 0.7, 3.7, 5.5, 7.0, 11 mM (0%, 0.001%, 0.01%, 0.05%, 0.075%, 0.1%, and 0.15%), were applied to HEK293 cells and the WST-1 experiment was performed. […] This might be because of the hydrophobicity of MB which causes it to form aggregates facilitated by the aqueous condition in the cell culture media. […] The WST-1 data were similar to the results without T20, except for 5.5 mM MB. […] We attributed the increased sensitivity of MB concentration 5.5 mM (0.075%) in the acetone-T20 solvent to the synergistic cytotoxic effect in the presence of the detergent, T20 with MB or the enhanced solubility of MB.

CCND1 (cyclin D1) = test: Real-time PCR, cyclin D1 mRNA expression in HEK293 cells; type: cell-based, human; conditions: HEK293, 48 h, VB 1.7 mM, ACTIN reference
Procedure: as §5
Further, we prompted to assess whether the gene expression of cell cycle and stress regulators such as cyclins and HSP70 is affected by MB, EB, and VB. These chemicals were applied to the HEK293 or SH-SY5Y cells at the concentrations of 4.4 mM [0.06% MB, 0.05% (3.7 mM) for SH-SY5Y cells], 1.7 mM (0.025%, EB), and 1.7 mM (0.025%, VB), respectively, for 48 h before extracting the total RNAs from the cells. The concentrations were chosen based on the LC50 values, approximately a third of the values, that would not cause cell death but could influence the gene expression in the tested cells. mRNAs of HSP70, CCNB1 (cyclin B1), and CCND1 (cyclin D1) were quantified by real-time PCR with ACTIN as a reference gene. […]

HSP70 [9] = test: Western blot, HSP70 protein level in HEK293 cells; type: cell-based, human; conditions: HEK293, VB 1.7 mM (250 ppm), α-Tubulin loading control
Procedure: HEK293 cells grown in 6 well plates for Western blots and SDS polyacrylamide gel electrophoresis (SDS-PAGE) were washed with cold PBS twice and scraped in RIPA buffer (Cell Signaling, Cat. 9806, USA). Protein concentration in each sample was measured through Bradford assay using Bio-Rad Protein Assay Dye Reagent Concentrate (Bio-Rad #5000006) and spectrophotometry at 595 nm (Tecan Sunrise™ Absorbance Microplate Reader, Switzerland). From the measured protein concentration, a total of 15 μg of proteins per each sample were loaded on 7% SDS-PA gels, blotted onto nitrocellulous membrane, and probed for HSP70 and α-Tubulin using corresponding antibody (HSP70, Santa Cruz sc-32239; α-Tubulin, Santa Cruz sc-8035) in Western blot assay.
Further, we prompted to assess whether the gene expression of cell cycle and stress regulators such as cyclins and HSP70 is affected by MB, EB, and VB. […] The concentrations were chosen based on the LC50 values, approximately a third of the values, that would not cause cell death but could influence the gene expression in the tested cells. mRNAs of HSP70, CCNB1 (cyclin B1), and CCND1 (cyclin D1) were quantified by real-time PCR with ACTIN as a reference gene. […]

[10] = log-probit on percentage mortality
[11] = log-probit on percentage mortality, read-out: LC50 (the source's name)

SMILES: CCOC(=O)c1ccccc1 [EB, ethyl benzoate]
- CC50 at 48 h [1]: 6.9 mM
- LC50 (HEK293 cells; [10]): 0.104%
- CC50 at 48 h [2]: 7.3 mM
- LC50 (SH-SY5Y cells; [10]): 0.11%
- cyclin B1 mRNA expression compared with solvent control (CCNB1 (cyclin B1)): rarely differentiated
- HSP70 mRNA expression compared with solvent control (HSP70 [3]): decreased
- mRNA expression of HSP70, CCNB1 and CCND1 [4]: did not display notable differential expressions
- AChE mRNA expression [5]: hardly any change

SMILES: COC(=O)c1ccccc1 [MB, Methyl benzoate]
- CC50 at 48 h [1]: 13.2 mM
- LC50 (HEK293 cells; [10]): 0.18%
- CC50 at 48 h [6]: 20.6 mM
- reduction in CACO2 cells in the WST-1 assay (CACO2 cells; CACO2, MB 3.7 mM (0.05%)): about 30%
- reduction in CACO2 cells in the WST-1 assay (CACO2 cells; CACO2, MB 7.3 mM (0.1%)): > 90%
- LC50 (CACO2 cells; CACO2, WST assay, log-probit on percentage mortality): 0.28%
- CC50 at 48 h [2]: 11 mM
- LC50 (SH-SY5Y cells; [10]): 0.15%
- viability [7]: ≤ 0.05%
- cyclin B1 mRNA expression compared with solvent control (CCNB1 (cyclin B1)): rarely differentiated
- HSP70 mRNA expression compared with solvent control (HSP70 [3]): decreased
- mRNA expression of HSP70, CCNB1 and CCND1 [4]: did not display notable differential expressions
- AChE mRNA expression [5]: hardly any change
- aggregate formation in cell culture media [8]: formed silver-colored aggregates

SMILES: C=COC(=O)c1ccccc1 [VB, vinyl benzoate]
- relative toxicity among MB, EB and VB (HEK293 cells): most toxic
- LC50 (HEK293 cells; [10]): 0.08%
- CC50 (HEK293 cells; [11]): 5.4 mM
- relative toxicity among MB, EB and VB (SH-SY5Y cells): most toxic
- LC50 (SH-SY5Y cells; [10]): 0.09%
- CC50 (SH-SY5Y cells; [11]): 6.1 mM
- cyclin B1 mRNA expression compared with solvent control (CCNB1 (cyclin B1)): rarely differentiated
- cyclin D1 mRNA expression compared with solvent control (CCND1 (cyclin D1)): noticeable reduction
- HSP70 mRNA expression compared with solvent control (HSP70 [3]): decreased
- HSP70 protein level (HSP70 [9]): consistently decreased
- mRNA expression of HSP70, CCNB1 and CCND1 [4]: did not display notable differential expressions
- AChE mRNA expression [5]: mild increase
